The source made the active and inactive calls. The rule behind the calls is not given here.
Assays:
[1] = biological target: von Hippel-Lindau disease tumor suppressor (Homo sapiens, UniProt P40337); assay: Binding affinity to VHL (unknown origin) incubated for 30 mins by HTRF assay
[2] = biological target: T1, von Hippel-Lindau disease tumor suppressor/SWI/SNF-related matrix-associated actin-dependent regulator of chromatin subfamily A member 2 (Homo sapiens, UniProt P51531+P40337); assay: PROTAC activity at VHL/SMARCA2 in human HT-1080 cells assessed as induction of SMARCA2 degradation incubated for 24 hrs by Nano-Glo HiBiT Lytic Detection Assay; type: cell-based
Target sequence in this assay (P51531 whole entry): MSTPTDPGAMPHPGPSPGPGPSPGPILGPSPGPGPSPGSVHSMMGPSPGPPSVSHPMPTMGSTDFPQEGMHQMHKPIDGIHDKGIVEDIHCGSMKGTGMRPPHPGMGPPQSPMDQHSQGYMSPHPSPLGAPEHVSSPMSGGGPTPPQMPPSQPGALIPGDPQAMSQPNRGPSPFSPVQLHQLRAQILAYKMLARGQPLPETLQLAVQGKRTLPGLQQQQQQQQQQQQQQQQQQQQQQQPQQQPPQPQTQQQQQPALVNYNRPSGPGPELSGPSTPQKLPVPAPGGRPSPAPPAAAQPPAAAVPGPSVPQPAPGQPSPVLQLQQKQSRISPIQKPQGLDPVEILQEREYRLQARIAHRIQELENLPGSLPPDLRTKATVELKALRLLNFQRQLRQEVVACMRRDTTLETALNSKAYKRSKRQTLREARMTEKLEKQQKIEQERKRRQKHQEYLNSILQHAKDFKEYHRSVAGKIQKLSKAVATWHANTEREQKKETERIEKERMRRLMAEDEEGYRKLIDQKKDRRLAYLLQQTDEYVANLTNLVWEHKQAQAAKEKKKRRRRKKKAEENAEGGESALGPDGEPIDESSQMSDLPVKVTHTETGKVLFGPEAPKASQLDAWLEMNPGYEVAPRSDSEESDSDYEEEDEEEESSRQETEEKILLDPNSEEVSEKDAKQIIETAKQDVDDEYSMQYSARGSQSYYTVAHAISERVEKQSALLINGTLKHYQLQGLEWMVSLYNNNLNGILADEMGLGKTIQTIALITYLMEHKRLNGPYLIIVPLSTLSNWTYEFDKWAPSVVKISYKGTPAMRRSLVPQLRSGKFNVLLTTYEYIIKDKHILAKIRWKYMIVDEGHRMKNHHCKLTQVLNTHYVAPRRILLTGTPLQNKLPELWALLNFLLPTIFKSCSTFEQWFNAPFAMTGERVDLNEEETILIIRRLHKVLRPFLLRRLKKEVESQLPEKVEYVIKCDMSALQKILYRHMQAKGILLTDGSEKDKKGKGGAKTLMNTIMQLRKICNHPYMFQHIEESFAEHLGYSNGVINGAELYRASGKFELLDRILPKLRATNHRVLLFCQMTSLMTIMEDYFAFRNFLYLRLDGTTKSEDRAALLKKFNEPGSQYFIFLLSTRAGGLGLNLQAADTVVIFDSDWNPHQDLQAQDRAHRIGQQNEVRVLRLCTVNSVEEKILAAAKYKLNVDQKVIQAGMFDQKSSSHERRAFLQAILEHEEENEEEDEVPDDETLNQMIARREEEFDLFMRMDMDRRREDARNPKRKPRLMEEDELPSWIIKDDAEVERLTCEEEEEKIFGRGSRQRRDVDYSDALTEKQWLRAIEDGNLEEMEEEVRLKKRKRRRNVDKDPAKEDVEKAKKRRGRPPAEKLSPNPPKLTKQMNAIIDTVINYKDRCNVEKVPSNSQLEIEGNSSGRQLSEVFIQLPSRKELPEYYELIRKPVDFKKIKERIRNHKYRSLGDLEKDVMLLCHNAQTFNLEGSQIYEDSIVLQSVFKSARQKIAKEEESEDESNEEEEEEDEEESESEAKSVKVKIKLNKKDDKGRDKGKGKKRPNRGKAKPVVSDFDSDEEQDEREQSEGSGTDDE
Target sequence in this assay (P40337 whole entry): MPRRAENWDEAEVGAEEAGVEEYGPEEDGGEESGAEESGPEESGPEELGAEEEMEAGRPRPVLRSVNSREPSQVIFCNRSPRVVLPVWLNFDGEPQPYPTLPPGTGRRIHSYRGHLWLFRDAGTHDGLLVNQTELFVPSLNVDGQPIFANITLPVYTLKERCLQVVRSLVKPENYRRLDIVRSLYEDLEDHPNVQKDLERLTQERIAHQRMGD

[3] = biological target: T1, von Hippel-Lindau disease tumor suppressor/SWI/SNF-related matrix-associated actin-dependent regulator of chromatin subfamily A member 2; assay: PROTAC activity at VHL/SMARCA2 in human HT-1080 cells assessed as induction of SMARCA2 degradation by measuring maximum efficacy incubated for 6 hrs by Nano-Glo HiBiT Lytic Detection Assay relative to control; type: cell-based
[4] = biological target: T2, von Hippel-Lindau disease tumor suppressor/SWI/SNF-related matrix-associated actin-dependent regulator of chromatin subfamily A member 4 (Homo sapiens, UniProt P51532+P40337); assay: PROTAC activity at VHL/SMARCA4 in human HT-1080 cells assessed as induction of SMARCA4 degradation incubated for 24 hrs by Nano-Glo HiBiT Lytic Detection Assay; type: cell-based
Target sequence in this assay (P51532 whole entry): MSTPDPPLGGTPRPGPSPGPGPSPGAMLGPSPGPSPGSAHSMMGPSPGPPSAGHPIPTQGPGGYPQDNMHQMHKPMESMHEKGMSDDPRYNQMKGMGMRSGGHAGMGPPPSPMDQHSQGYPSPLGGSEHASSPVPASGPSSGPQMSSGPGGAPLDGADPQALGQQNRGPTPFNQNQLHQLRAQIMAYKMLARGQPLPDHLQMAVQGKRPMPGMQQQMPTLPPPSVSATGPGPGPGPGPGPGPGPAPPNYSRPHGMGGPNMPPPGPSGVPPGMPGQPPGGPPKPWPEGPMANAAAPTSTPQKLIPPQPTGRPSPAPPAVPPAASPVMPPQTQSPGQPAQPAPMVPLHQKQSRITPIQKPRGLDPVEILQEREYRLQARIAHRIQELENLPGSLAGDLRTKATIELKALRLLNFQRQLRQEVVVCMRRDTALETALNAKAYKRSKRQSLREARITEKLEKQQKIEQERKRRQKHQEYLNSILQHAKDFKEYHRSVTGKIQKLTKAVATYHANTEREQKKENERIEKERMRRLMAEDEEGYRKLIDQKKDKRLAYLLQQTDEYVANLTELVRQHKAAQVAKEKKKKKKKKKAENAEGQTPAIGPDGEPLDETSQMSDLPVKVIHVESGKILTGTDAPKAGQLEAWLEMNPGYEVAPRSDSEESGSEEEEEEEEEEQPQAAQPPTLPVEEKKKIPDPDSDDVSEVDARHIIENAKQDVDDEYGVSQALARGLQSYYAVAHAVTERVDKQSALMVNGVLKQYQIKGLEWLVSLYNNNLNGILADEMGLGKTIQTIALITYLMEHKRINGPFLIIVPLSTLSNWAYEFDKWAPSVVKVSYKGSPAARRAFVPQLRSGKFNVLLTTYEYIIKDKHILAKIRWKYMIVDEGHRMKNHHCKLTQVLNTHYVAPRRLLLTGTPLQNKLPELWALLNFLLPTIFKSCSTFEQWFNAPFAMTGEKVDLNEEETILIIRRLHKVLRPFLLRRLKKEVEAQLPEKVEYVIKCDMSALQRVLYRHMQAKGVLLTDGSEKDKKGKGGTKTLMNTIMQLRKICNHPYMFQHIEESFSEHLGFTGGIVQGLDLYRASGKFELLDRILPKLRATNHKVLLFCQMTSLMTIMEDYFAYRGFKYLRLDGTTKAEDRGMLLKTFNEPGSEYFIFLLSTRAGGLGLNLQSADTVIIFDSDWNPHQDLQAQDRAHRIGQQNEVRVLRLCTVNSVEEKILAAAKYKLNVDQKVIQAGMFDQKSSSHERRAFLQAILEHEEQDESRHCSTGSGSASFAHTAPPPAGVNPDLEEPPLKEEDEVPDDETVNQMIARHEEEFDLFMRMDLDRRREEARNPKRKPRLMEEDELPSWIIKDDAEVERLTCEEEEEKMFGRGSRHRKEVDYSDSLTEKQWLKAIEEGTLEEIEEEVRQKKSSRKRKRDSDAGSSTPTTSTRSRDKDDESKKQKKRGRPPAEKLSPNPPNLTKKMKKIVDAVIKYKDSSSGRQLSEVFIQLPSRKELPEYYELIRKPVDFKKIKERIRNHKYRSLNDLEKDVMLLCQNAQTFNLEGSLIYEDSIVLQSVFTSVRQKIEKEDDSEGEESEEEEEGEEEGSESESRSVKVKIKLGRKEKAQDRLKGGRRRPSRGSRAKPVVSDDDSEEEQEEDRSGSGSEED
Target sequence in this assay (P40337 whole entry): as the sequence (P40337 whole entry) above

[5] = biological target: T2, von Hippel-Lindau disease tumor suppressor/SWI/SNF-related matrix-associated actin-dependent regulator of chromatin subfamily A member 4; assay: PROTAC activity at VHL/SMARCA4 in human HT-1080 cells assessed as induction of SMARCA4 degradation by measuring maximum efficacy incubated for 6 hrs by Nano-Glo HiBiT Lytic Detection Assay relative to control; type: cell-based
[6] = Selectivity ratio of DC50 for PROTAC activity at VHL/SMARCA4 in human HT-1080 cells (unknown origin) to DC50 for VHL/SMARCA2 in human HT-1080 cells (unknown origin); type: cell-based
NCI-H838 [7] = assay: Antiproliferative activity against human NCI-H838 cells assessed as cell growth inhibition incubated for 6 days by Cell Titer Glo assay; type: functional; settings: NCI-H838, 144 h, time 6 day
Calu-6 [8] = assay: Antiproliferative activity against human Calu-6 cells assessed as cell growth inhibition incubated for 6 days by Cell Titer Glo assay; type: functional; settings: Calu-6, 144 h, time 6 day
[9] = Metabolic stability in female BALB/c mouse microsomes assessed as half life administered intravenously; type: ADME; settings: route iv
[10] = Metabolic stability in female BALB/c mouse microsomes assessed as hepatic extraction ratio administered intravenously; type: ADME; settings: route iv, read-out: ERH
[11] = biological target: SWI/SNF-related matrix-associated actin-dependent regulator of chromatin subfamily A member 2 (Homo sapiens, UniProt P51531); assay: Binding affinity to SMARCA2 (unknown origin) incubated for 30 mins by HTRF assay
[12] = biological target: SWI/SNF-related matrix-associated actin-dependent regulator of chromatin subfamily A member 4 (Homo sapiens, UniProt P51532); assay: Binding affinity to SMARCA4 (unknown origin) incubated for 30 mins by HTRF assay
[13] = biological target: T1, von Hippel-Lindau disease tumor suppressor/SWI/SNF-related matrix-associated actin-dependent regulator of chromatin subfamily A member 2; assay: Binding affinity to flag-tagged SMARCA2/VHL (unknown origin) assessed as ternary complex formation by measuring HTRF signal incubated for 120 mins by Envision reader analysis; type: protein assay
Calu-6 [14] = assay: Antiproliferative activity against human Calu-6 cells assessed as inhibition of cell growth at 1 uM incubated for 6 days by Cell Titer Glo assay; type: functional; settings: Calu-6, 144 h, time 6 day
[15] = biological target: T1, von Hippel-Lindau disease tumor suppressor/SWI/SNF-related matrix-associated actin-dependent regulator of chromatin subfamily A member 2; assay: In vivo PROTAC activity at VHL/ SMARCA2 in female BALB/c mouse xenografted with human HT-1080 cells assessed as reduction in SMARCA2 level in tumor at 1 mg/kg, iv measured after 24 hrs relative to control; type: functional, organism-based; design: scale not given: the % may be the effect or the level left
[16] = biological target: T1, von Hippel-Lindau disease tumor suppressor/SWI/SNF-related matrix-associated actin-dependent regulator of chromatin subfamily A member 2; assay: PROTAC activity at VHL/SMARCA2 in human HT-1080 cells assessed as induction of SMARCA2 degradation measured after 6 hrs by Nano-Glo HiBiT Lytic Detection Assay; type: cell-based; settings: dose 0.02-1000 nM
[17] = biological target: T1, von Hippel-Lindau disease tumor suppressor/SWI/SNF-related matrix-associated actin-dependent regulator of chromatin subfamily A member 2; assay: PROTAC activity at VHL/SMARCA2 in human HT-1080 cells assessed as induction of SMARCA2 degradation at 0.02 to 1000 nM by Nano-Glo HiBiT Lytic Detection Assay; type: cell-based; settings: dose 0.02-1000 nM, time 6-24 hrs
[18] = biological target: T1, von Hippel-Lindau disease tumor suppressor/SWI/SNF-related matrix-associated actin-dependent regulator of chromatin subfamily A member 2; assay: PROTAC activity at VHL/SMARCA2 in human HT-1080 cells assessed as induction of SMARCA2 degradation pretreated with MG132 followed by compound addition and measured after 6 hrs by Nano-Glo HiBiT Lytic Detection Assay; type: cell-based
[19] = biological target: T1, von Hippel-Lindau disease tumor suppressor/SWI/SNF-related matrix-associated actin-dependent regulator of chromatin subfamily A member 2; assay: PROTAC activity at VHL/SMARCA2 in human HT-1080 cells assessed as induction of SMARCA2 degradation pretreated with MLN4924 followed by compound addition and measured after 6 hrs by Nano-Glo HiBiT Lytic Detection Assay; type: cell-based
NCI-H838 [20] = assay: Antiproliferative activity against human NCI-H838 cells assessed as inhibition of cell proliferation incubated for 6 days by Cell Titer Glo assay; type: functional, cell-based; settings: time 6.0 day
NCI-H1573 = assay: Antiproliferative activity against human NCI-H1573 cells assessed as inhibition of cell proliferation incubated for 6 days by Cell Titer Glo assay; type: functional, cell-based; settings: time 6.0 day
NCI-H1568 = assay: Antiproliferative activity against human NCI-H1568 cells assessed as inhibition of cell proliferation incubated for 6 days by Cell Titer Glo assay; type: functional, cell-based; settings: time 6.0 day
Calu-6 [21] = assay: Antiproliferative activity against wild type human Calu-6 cells assessed as inhibition of cell proliferation incubated for 6 days by Cell Titer Glo assay; type: functional, cell-based; settings: time 6.0 day
HT-1080 = assay: Antiproliferative activity against wild type human HT-1080 cells assessed as inhibition of cell proliferation incubated for 6 days by Cell Titer Glo assay; type: functional, cell-based; settings: time 6.0 day
NCI-H1373 = assay: Antiproliferative activity against wild type human NCI-H1373 cells assessed as inhibition of cell proliferation incubated for 6 days by Cell Titer Glo assay; type: functional, cell-based; settings: time 6.0 day
[22] = biological target: T1, von Hippel-Lindau disease tumor suppressor/SWI/SNF-related matrix-associated actin-dependent regulator of chromatin subfamily A member 2; assay: In vivo PROTAC activity at VHL/ SMARCA2 in female BALB/c mouse xenografted with human HT-1080 cells assessed as reduction in SMARCA2 level in tumor at 10 mg/kg, iv measured after 24 hrs relative to control; type: functional, organism-based; design: scale not given: the % may be the effect or the level left
[23] = biological target: T2, von Hippel-Lindau disease tumor suppressor/SWI/SNF-related matrix-associated actin-dependent regulator of chromatin subfamily A member 4; assay: In vivo PROTAC activity at VHL/ SMARCA4 in female BALB/c mouse xenografted with human HT-1080 cells assessed as increase in SMARCA4 level administered intravenously and measured after 24 hrs; type: functional, organism-based; settings: route iv
[24] = biological target: T2, von Hippel-Lindau disease tumor suppressor/SWI/SNF-related matrix-associated actin-dependent regulator of chromatin subfamily A member 4; assay: PROTAC activity at VHL/SMARCA4 in human HT-1080 cells assessed as induction of SMARCA4 degradation pretreated with MG132 followed by compound addition and measured after 6 hrs by Nano-Glo HiBiT Lytic Detection Assay; type: cell-based
[25] = biological target: T2, von Hippel-Lindau disease tumor suppressor/SWI/SNF-related matrix-associated actin-dependent regulator of chromatin subfamily A member 4; assay: PROTAC activity at VHL/SMARCA4 in human HT-1080 cells assessed as induction of SMARCA4 degradation pretreated with MLN4924 followed by compound addition and measured after 6 hrs by Nano-Glo HiBiT Lytic Detection Assay; type: cell-based

von Hippel-Lindau disease tumor suppressor, sequence (P40337 whole entry): as above

IC50 [1]	DC50 [2]	Emax [3]	DC50 [4]	Emax [5]	GI50 (NCI-H838 [7])	GI50 (Calu-6 [8])	half-life [9]	Compound	Ratio [6]	other results
1.5 nM	0.28 nM	97%	12 nM	78%	32 nM	> 1000 nM	1.5 h	Cc1ncsc1-c1ccc([C@H](C)NC(=O)[C@@H]2C[C@@H](O)CN2C(=O)[C@@H](n2cc([C@H]3CC[C@H](CN4CCC(c5ccc6c(c5)C(C)(C)c5nc(=O)c7c(Cl)cccc7n5-6)CC4)CC3)nn2)C(C)(C)C)cc1	43	hepatic extraction ratio [10]: 0.44
8.6 nM	1.7 nM	97%	63 nM	69%	27 nM	> 1000 nM		Cc1ncsc1-c1ccc([C@H](C)NC(=O)[C@@H]2C[C@@H](O)CN2C(=O)[C@@H](c2cc(N3CCC(CN4CCC(c5ccc6c(c5)-n5c(nc(=O)c7c(Cl)cccc75)C6(C)C)CC4)CC3)no2)C(C)C)cc1	37	IC50 [11]: 30 nM; IC50 [12]: 63 nM; Activity [13]: Active; Smarca2-Vhl Shows 60% Greater Auc Compared To Smarca4-Vhl Was Observed; inhibition at 1 µM (Calu-6 [14]): < 15%
25 nM	1.3 nM	97%	94 nM	68%	34 nM	> 1000 nM	10 h	Cc1ncsc1-c1ccc([C@H](C)NC(=O)[C@@H]2C[C@@H](O)CN2C(=O)[C@@H](n2cc([C@H]3CC[C@H](CN4CCC(c5ccc6c(c5)-n5c(nc(=O)c7c(Cl)cccc75)C6(C)C)CC4)CC3)nn2)C(C)(C)C)cc1	72	Activity [15]: 83%; Activity [16]: Dose-dependent-effect; Activity [17]: Time-dependent-effect; Activity [18]: inactive; Activity [19]: inactive; Activity (NCI-H838 [20]): Active; Activity (NCI-H1573): Active; Activity (NCI-H1568): Active; Activity (Calu-6 [21]): Active; Less Activity Observed; Activity (HT-1080): Active; Less Activity Observed; Activity (NCI-H1373): Active; Less Activity Observed; Activity [22]: > 95%; Activity [23]: Active; Activity [24]: inactive; Activity [25]: inactive
